Experiments:
[1] = Cloud point temperature (Tcp) by transmittance while heating; type: physicochemical; details: for Tcp (° C.): polymer 3.0 mg/mL in H2O, heated 1° C./min, temperature of 50% transmittance at 500 nm, —a = no Tcp detected, fully soluble 20 to 80° C., NA^b = insoluble in H2O down to 5° C.
Experimental: (§1) FIGS. 7A and 7B show CD Spectra and heating curves of exemplary OEG-Hcy derivatives.
The incorporation of precise side-chain structural modifications, enabled systematic study of the effects of different functionalities on the properties of the materials. […] Cloud point temperatures (Tcp) were determined at 50% transmittance by monitoring solution transmittance as a function of temperature, and were used to approximate the equilibrium LCST values. Since chain length variation and polymer concentration are well known to affect Tcp values, all samples were identical in length, being prepared from the same stock of M60 (SEQ ID NO: 1).

[2] = Chain conformation / helicity by circular dichroism (CD) spectroscopy; type: physicochemical; details: 20° C.
Experimental: For M60 (SEQ ID NO: 1), no data are presented below 204 nm due to solvent absorption that prohibits data collection. 31 found to be 85% α-helical. All CD spectra recorded at 0.5 mg/ml, 20° C. Figure discloses “C^H60” as SEQ ID NO: 2.
as §1
Heating or cooling rate: 1° C./min, transmittance recorded at 500 nm. […] (label: 20° C.*).
All data were recorded in H2O at 0.5 mg/mL, 20° C. For 5b no data were recorded below 198 nm due to sulfoxide absorption.

Substance: Poly(S-(3-(2-hydroxyethoxy)-2-hydroxypropyl)-L-homocysteine) [Sample 2a]
- water solubility (in words) (Solubility in water): fully water soluble

Substance: Poly(S-(2-(((2-methoxyethoxy)carbonyl)oxy)-4,7,10,13-tetraoxatetradecyl)-L-homocysteine) [Sample 3b]
- Tcp (° C.) [1]: 41 °C

Substance: Poly(S-(3-(2-methoxyethoxy)-2-hydroxypropyl)-DL-homocysteine) [rac-2b]
- water solubility (in words) (Solubility in water): fully water soluble

Substance: Poly(L-methionine)60 [Sample M60, reference compound]
- water solubility (in words) (Solubility in water): water-insoluble
- chain conformation ([2]; CD in THF, 0.5 mg/ml): helical

Substance: Poly(S-(2-acetoxy-4,7,10,13-tetraoxatetradecyl)-L-homocysteine) [Sample 3a]
- Tcp (° C.) [1]: 39 °C

Substance: Poly(S-(3-(2-acetoxyethoxy)-2-hydroxypropyl)-L-homocysteine) [Sample 2c]
- water solubility (in words) (Solubility in water): water insoluble

Substance: Poly(S-(2-hydroxy-4,7-dioxaoctyl)-L-homocysteine sulfone) [Sample 5b]
- water solubility (in words) (Solubility in water): good solubility
- Tcp / LCST in water, present or not [1]: neither polymer has a LCST
- chain conformation ([2]; CD in water, 0.5 mg/mL): α-helical conformation
- α-helical (%) ([2]; CD in water, 0.5 mg/mL): 86%

Substance: Poly(S-(2-hydroxy-4,7-dioxaoctyl)-L-homocysteine sulfoxide) [Sample 5a]
- water solubility (in words) (Solubility in water): good solubility
- Tcp / LCST in water, present or not [1]: neither polymer has a LCST
- chain conformation ([2]; CD in water, 0.5 mg/mL): disordered conformation

— patent US11732008B2, “Preparation of functional homocysteine residues in polypeptides and peptides” (The Regents of the University of California, priority 2016, dated 2023)
